# Test results published in article PMC12629513 (Nature, 2024).
# Like-named read-outs stand apart in the source and are kept apart here.
# How the values were obtained:
# [1] = test system: TX001-H5N1 wild-type; format: cell-based, A/dairy cattle/Texas/24–008749-001/2024 (H5N1)
# [2] = test system: VN1203-H5N1; test: microbe, parasite or virus in culture; format: cell-based, A/Vietnam/1203/2004 (H5N1); details: read-out: IC50 of polymerase inhibitor
# [3] = test system: wild-type TX001-H5N1; details: mouse
# [4] = molecular target: VN1203-H5N1 neuraminidase (NA) (Influenza A virus, UniProt Q6DPL2); test: biochemical; design: species or system A/Vietnam/1203/2004 (H5N1)
# [5] = molecular target: TX001-H5N1 wild-type neuraminidase (NA) (Influenza A virus, UniProt D0G890); format: biochemical, A/dairy cattle/Texas/24–008749-001/2024 (H5N1)
# [6] = read-out: IC50 of neuraminidase inhibitors
smiles,measurement,setting,value
O=C1c2c(O)c(=O)ccn2N([C@@H]2c3ccccc3SCc3c2ccc(F)c3F)[C@@H]2COCCN12 [Baloxavir acid],IC50,[1]; read-out: IC50 of polymerase inhibitor,0.61 ± 0.12 nM
same,IC50,[2],1.25 ± 0.75 nM
NC(=O)c1nc(F)c[nH]c1=O [Favipiravir],Effectiveness of polymerase inhibitor in vitro,[1],highly effective
same,"Effectiveness in vivo (body weight, survival, virus titres)",[3]; po,highly effective
same,IC50,"[2]; Influenza A virus, H5N1, MDCK, 48 h",1.65 ± 0.15 µg/mL
CO[C@@H]([C@@H]1OC(C(=O)O)=C[C@H](NC(=N)N)[C@H]1NC(C)=O)[C@H](O)CO [Laninamivir],IC50,[4],0.41 ± 0.03 nM
CCC(CC)[C@H](NC(C)=O)[C@@H]1[C@H](O)[C@@H](C(=O)O)C[C@H]1N=C(N)N [Peramivir],IC50,[4]; [6],0.24 ± 0.03 nM
same,IC50,[5]; [6],0.195 ± 0.015 nM
CC(=O)N[C@H]1[C@H]([C@H](O)[C@H](O)CO)OC(C(=O)O)=C[C@@H]1N=C(N)N [Zanamivir],Effect on body weight loss and death,[3]; in vivo,delayed body weight loss and death
same,"Effect on virus titres in lung, nasal turbinate and brain",[3]; in vivo,"significantly reduced virus titres in lung, nasal turbinate and brain"
same,Protection against lethality,[3]; in vivo,did not protect against lethality
same,Antiviral sensitivity to NA inhibitor in vitro (interpretation),[5],sensitive
COC(=O)OCOc1c2n(ccc1=O)N([C@@H]1c3ccccc3SCc3c1ccc(F)c3F)[C@@H]1COCCN1C2=O [baloxavir marboxil],Effectiveness of polymerase inhibitor in vitro,[1],highly effective
same,"Effectiveness in vivo (body weight, survival, virus titres)",[3]; po,highly effective
CCOC(=O)C1=C[C@@H](OC(CC)CC)[C@H](NC(C)=O)[C@@H](N)C1 [oseltamivir phosphate],"Protection against body weight loss, viral replication in tissues, or survival","[3]; in vivo, po",Minimal protection
